The values below come from ChEMBL document CHEMBL2176928, “Discovery of novel inhibitors of amyloid β-peptide 1-42 aggregation” (J Med Chem, 2012).

Each structure is given as a SMILES string. Activity calls are given as the source filed them. The calls are words filed in the database; no cut-off is given here.

Data set [1] can be described thus: Elongation of aggregates of GFP-fused amyloid beta (1 to 42) expressed in Podospora anserina extract assessed as reduction of amyloid beta SDS-resistant oligomers after 1 hr by SDS-PAGE and Western blot analysis. On the technique in general: Immunoblotting shows a protein as a band on a membrane.
A short description of data set [2]: Inhibition of aggregation of GFP-fused amyloid beta (1 to 42) expressed in Podospora anserina assessed as reduction of amyloid beta SDS-resistant oligomers at 50 uM after 10 hrs to 5 days by SDS-PAGE and Western blot analysis.
Data set [3] in a line: Inhibition of aggregation of GFP-fused amyloid beta (1 to 42) expressed in Podospora anserina assessed as reduction of amyloid beta SDS-resistant oligomers at 100 uM after 24 hrs by SDS-PAGE and Western blot analysis.
The nature of data set [4]: Toxicity in Podospora anserina expressing GFP-fused amyloid beta (1 to 42) assessed as effect on lifespan and growth rate of fungi at 100 uM.
Data set [5] concerns the target Amyloid-beta precursor protein (Homo sapiens) (UniProt P05067). Nature of the data set: Inhibition of aggregation of human DHFR-fused amyloid beta (1 to 42) expressed in yeast harboring erg6delta assessed as increase in yeast viability measured up to 20 hrs in presence of MTX.
Data set [6] has the same target. Put plainly: Inhibition of aggregation of human DHFR-fused amyloid beta (1 to 42) expressed in yeast harboring erg6delta assessed as increase in yeast viability at 10 uM measured up to 20 hrs in presence of MTX.
Data set [7] is described as follows: Cytotoxicity against human HeLa cells after 24 hrs by XTT assay. It counts as cell-based.
Data set [8] is described as follows: Lipophilicity, log P of the compound. The format is physicochemical. The settings on record: octanol/water.
The nature of data set [9]: Inhibition of aggregation of amyloid beta (17 to 40) assessed as fibril formation at 100 uM measured up to 24 hrs by transmission electron microscopic analysis.
A short description of data set [10]: Inhibition of aggregation of amyloid beta (17 to 40) assessed as fibril formation at 100 uM measured up to 10 hrs by turbidimetry assay.
Data set [11] can be described thus: Inhibition of aggregation of amyloid beta (17 to 40) assessed as fibril formation at 100 uM measured up to 13 hrs by high throughput thioflavin-T binding assay.
In data set [12] the test system is Saccharomyces cerevisiae. Nature of the data set: Toxicity in yeast harboring erg6delta expressing human DHFR-fused amyloid beta (1 to 42) at 10 uM. The format is organism-based. The settings on record: in vivo.
A short description of data set [13]: Inhibition of aggregation of GFP-fused amyloid beta (1 to 42) expressed in Podospora anserina assessed as reduction of amyloid beta SDS-resistant oligomers at 50 uM after 24 hrs by SDS-PAGE and Western blot analysis.
Data set [14] can be described thus: Toxicity in Podospora anserina expressing GFP-fused amyloid beta (1 to 42) assessed as effect on lifespan and growth rate of fungi at 50 uM.
Data set [15] concerns Saccharomyces cerevisiae. Nature of the data set: Toxicity in yeast harboring erg6delta expressing human DHFR-fused amyloid beta (1 to 42) at 100 uM. The format is organism-based. Particulars: in vivo.

Amyloid-beta precursor protein (Homo sapiens), sequence (P05067 whole entry, the tested form may be a part): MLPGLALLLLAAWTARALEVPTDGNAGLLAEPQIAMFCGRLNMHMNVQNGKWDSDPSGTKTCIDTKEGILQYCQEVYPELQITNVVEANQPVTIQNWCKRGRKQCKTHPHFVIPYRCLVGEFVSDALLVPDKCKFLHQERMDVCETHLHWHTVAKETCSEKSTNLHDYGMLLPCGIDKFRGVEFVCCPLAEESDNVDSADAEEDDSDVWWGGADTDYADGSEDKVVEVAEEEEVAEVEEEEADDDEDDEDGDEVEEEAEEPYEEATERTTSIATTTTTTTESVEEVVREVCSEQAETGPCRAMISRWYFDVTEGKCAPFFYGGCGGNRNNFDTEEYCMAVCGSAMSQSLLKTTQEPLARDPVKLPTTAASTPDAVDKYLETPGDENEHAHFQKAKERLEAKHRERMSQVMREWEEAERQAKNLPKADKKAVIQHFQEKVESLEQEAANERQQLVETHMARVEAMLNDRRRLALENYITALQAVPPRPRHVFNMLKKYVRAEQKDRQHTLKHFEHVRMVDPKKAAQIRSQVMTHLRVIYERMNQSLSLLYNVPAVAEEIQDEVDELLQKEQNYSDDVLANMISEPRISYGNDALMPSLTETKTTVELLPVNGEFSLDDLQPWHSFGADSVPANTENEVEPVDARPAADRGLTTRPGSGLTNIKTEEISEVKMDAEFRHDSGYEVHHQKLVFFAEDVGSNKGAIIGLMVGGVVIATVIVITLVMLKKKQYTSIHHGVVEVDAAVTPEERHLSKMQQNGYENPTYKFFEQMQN

Take `Cc1nc2sc3c(c2c(=O)o1)CCCC3`: in data set [1], the result was inactive. The inhibition result in [2], in data set [6], in data set [9], in data set [10] and in data set [11] was “Active” in each case. Also, the inhibition result in data set [3] is “inactive”. In data set [4], the Activity result is reported as “Toxic”. Moreover, the inhibition entry in data set [5] is “Dose-dependent effect”. This molecule had an MCC at 24 h in data set [7] of 184 µM. Moreover, the logP in data set [8] turned out to be 2.8.

Consider `CCCCC(CC)CNC(=N)NC(=N)NCCCCCCNC(=N)NC(=N)NCC(CC)CCCC.Cl.Cl` (configuration not stated) [ALEXIDINE DIHYDROCHLORIDE], for which, in [12], the Activity entry was “Toxic”. In addition, the MCC at 24 h in data set [7] was determined as 2 µM. The inhibition result in data set [9], in [10] and in data set [11] was “Active” each time.

`O=C(Nc1ccccc1)Nc1ccc(Cl)cc1[N+](=O)[O-]`: in data set [1], the outcome was inactive. In addition, the inhibition entry in [2], in data set [6], in data set [9], in data set [10] and in [11] was “Active” throughout. In addition, the inhibition result in data set [13] is “inactive”. Besides, the Activity entry in data set [14] and in data set [15] was “Toxic” throughout. In addition, in data set [7], the MCC at 24 h came out at 20 µM. In data set [8], this molecule had a logP of 3.7.

On to `Nc1c(S(=O)(=O)c2ccc(Cl)cc2)cnc2cc(-c3ccccc3)nn12`, for which the outcome in data set [1] was inactive. In addition, in data set [13], the inhibition entry is “inactive”. In addition, the Activity result in data set [14] is on record as “Non-toxic”; in [15], “Toxic”. For the same molecule, the MCC at 24 h in [7] was 22 µM. For the same molecule, the logP in data set [8] was 3.3. For the same molecule, the inhibition result in [9], in data set [10] and in data set [11] was “Active” throughout.

With `O=S(=O)(Nc1ccc(N2CCCCC2)cc1)c1cc(Cl)sc1Cl`, the outcome in data set [1] was inactive. The inhibition entry in [2], in data set [13], in data set [6], in data set [9], in data set [10] and in [11] was “Active” throughout. Further, the Activity result in data set [14] is “Non-toxic”. Moreover, the inhibition entry in [5] was “Dose-dependent effect”. For the same molecule, the MCC at 24 h in data set [7] turned out to be 17 µM. The log partition coefficient (logP) in [8] was determined as 3.9.

One may read the logP as a log measure of how a compound divides between an organic and an aqueous phase.
